This experiment concerns tumor cell. The experiment can be described thus: Cytotoxicity assay (MTS). It counts as cell-based. As to conditions: 72 h; incubation for three days; read-out: IC50, tumor cell growth inhibition (MTS). On the procedure:
The efficacy of a test compound in inhibiting tumor cell growth was analyzed using a MTS assay. The MTS assay is a calorimetric method for the determination of viable cells in proliferation by using a tetrazolium compound (3-(4,5-dimethylthiazol-2-yl)-5-(3-[…])-2-(4-sulfophenyl)-2H-tetrazolium, inner salt; MTS) and an electron-coupling agent (phenazine methosulfate; PMS). The MTS reagent is converted by dehydrogenase enzymes in metabolically active cells into a formazan that is soluble in a tissue culture medium.
In this assay, tumor cell suspensions (30 μl/well) were seeded into 384-well flat-bottomed tissue culture plates at an appropriate density overnight. A fresh medium (3 μl/well) containing varying concentrations of a test compound or vehicle was added to the culture followed by incubation for three days. At the end of the incubation, all plates were processed simultaneously as follows: The culture medium was aspirated, a MTS cell proliferation assay (Promega) solution (30 μl/well) was added, and the plates were incubated at 37° C. for about 2 hours. Absorbance (a parameter proportional to the cell mass) was measured at 490 nm using a Multiskan (Thermo Electron Corporation, Waltham, Mass.). Inhibition effects were expressed as corrected T/C values for each test compound according to the following equation:
T/C=(T−Blank)/(C−Blank)×100(%),
where T is the mean absorbance of the treated cells, C is the mean absorbance of the controls, and Blank is the mean absorbance of the cell free well.

The structures appear in SMILES notation.

On to `Cc1ccc(C(=O)N(CCCN)C(c2nc3n(c(=O)c2Cc2ccccc2)Cc2ccccc2-3)C(C)C)cc1F` (stereo not shown) [Compound 152], for which the IC50 was under 30 µM.

`Cc1ccc(C(=O)N(CCN)[C@@H](c2nc3c(oc4ccc(F)cc43)c(=O)n2Cc2cccc(F)c2)C(C)C)cc1` [Compound 187]: the IC50 is under 30 µM.

On to `Cc1ccc(Cn2c(C(C(C)C)N(CCN)C(=O)c3ccc(C)cc3)nc3c(oc4ccc(F)cc43)c2=O)cc1` (stereo not shown) [Compound 123], for which the IC50 was under 30 µM.

On to `CC(C)C(c1nc2n(c(=O)c1Cc1ccccc1)Cc1ccccc1-2)N(CCCN)C(=O)c1ccc(Br)cc1` (stereo not shown) [Compound 155], for which the IC50 was under 30 µM.

With `Cc1ccc(C(=O)N(CCCN)C(c2nc3cc4ccccc4cc3c(=O)n2Cc2ccc(Cl)s2)C(C)C)cc1` (stereo not shown) [Compound 5], the IC50 was under 30 µM.

For the compound `COC(=O)c1ccc(Cn2c(C(C(C)C)N(CCCN)C(=O)c3ccc(C)cc3)nc3c(oc4ccc(F)cc43)c2=O)s1` (stereo not shown) [Compound 89], the IC50 was under 30 µM.

Take `Cc1ccc(C(=O)N(CCN)[C@@H](c2nc3c(oc4ccc(F)cc43)c(=O)n2Cc2cc(C#N)cs2)C(C)C)cc1` [Compound 178]: the IC50 was under 30 µM.

Turning to `Cc1ccc(C(=O)N(CCN)C(c2nc3c(oc4ccccc43)c(=O)n2Cc2ccc(Br)s2)C(C)C)cc1` (stereo not shown) [Compound 164], the IC50 was under 30 µM.

For the compound `Cc1ccc(C(=O)N(CCN)[C@@H](c2nc3c(oc4ccc(F)cc43)c(=O)n2Cc2cccs2)C(C)C)cc1` [Compound 199], the IC50 is under 30 µM.

Turning to `CC(C)C(c1nc2c(sc3ccccc32)c(=O)n1Cc1ccc(Cl)s1)N(CCCN)C(=O)c1ccc(Br)cc1` (stereo not shown) [Compound 141], the IC50 was under 30 µM.

Turning to `CC(C)[C@H](c1nc2c(oc3ccc(F)cc32)c(=O)n1Cc1cccs1)N(CCN)C(=O)c1ccc(Br)cc1` [Compound 201], the IC50 was under 30 µM.

In the case of `Cc1ccc(C(=O)N(CCN)[C@@H](c2nc3c(oc4ccc(F)cc43)c(=O)n2Cc2ccco2)C(C)C)cc1F` [Compound 186], the IC50 is under 30 µM.

For `Cc1ccc(C(=O)N(CCN)[C@@H](c2nc3c(oc4ccc(F)cc43)c(=O)n2Cc2ccc(Cl)o2)C(C)C)cc1` [Compound 189], the IC50 is under 30 µM.

Regarding `Cc1ccc(C(=O)N(CCCN)C(c2nc3c(oc4ccc(C(F)(F)F)cc43)c(=O)n2Cc2ccccc2)C(C)C)cc1` (stereo not shown) [Compound 30], the IC50 is under 30 µM.

On to `Cc1ccc(C(=O)N(CCCN)C(c2nc3c(oc4ccc(F)cc43)c(=O)n2Cc2cc(C)cs2)C(C)C)cc1` (stereo not shown) [Compound 85], for which the IC50 was under 30 µM.

Take `COC(=O)c1ccc(Cn2c(C(C(C)C)N(CCN)C(=O)c3ccc(C)cc3)nc3c(oc4ccc(F)cc43)c2=O)s1` (stereo not shown) [Compound 88]: the IC50 was under 30 µM.

`Cc1ccc(C(=O)N(CCN)C(c2nc3c(oc4ccc(Br)cc43)c(=O)n2Cc2ccccc2)C(C)C)cc1` (stereo not shown) [Compound 37]: the IC50 is under 30 µM.

Regarding `CC(C)C(c1nc2c(oc3ccc(F)cc32)c(=O)n1Cc1ccc(Cl)o1)N(CCN)C(=O)c1ccc(C(F)(F)F)cc1` (stereo not shown) [Compound 171], the IC50 is under 30 µM.

Take `Cc1ccc(C(=O)N(CCN)C(c2nc3c(oc4ccc(Cl)cc43)c(=O)n2Cc2ccccc2)C(C)C)cn1` (stereo not shown) [Compound 56]: the IC50 is under 30 µM.

Take `Cc1ccc(C(=O)N(CCN)[C@@H](c2nc3c(oc4ccc(F)cc43)c(=O)n2Cc2ccoc2)C(C)C)cc1F` [Compound 197]: the IC50 is under 30 µM.

As to `Cc1ccc(C(=O)N(CCN)[C@@H](c2nc3c(oc4ccc(F)cc43)c(=O)n2Cc2cc(Br)co2)C(C)C)cc1` [Compound 217], the IC50 is under 30 µM.

`CCC(c1nc2nc3cc(Cl)ccc3cc2c(=O)n1Cc1ccccc1)N(CCCN)C(=O)c1ccc(C)cc1` (stereo not shown) [Compound 12]: the IC50 was under 30 µM.

Consider `CC(C)[C@H](c1nc2c(oc3ccc(F)cc32)c(=O)n1Cc1cccc(F)c1)N(CCN)C(=O)c1ccc(Br)cc1` [Compound 203], for which the concentration for half-maximal inhibition (IC50) is under 30 µM.

As for `Cc1ccc(C(=O)N(CCN)C(c2nc3c(oc4ccc(Cl)cc43)c(=O)n2Cc2ccco2)C(C)C)cc1` (stereo not shown) [Compound 125], the IC50 is under 30 µM.

For `Cc1ccc(C(=O)N(CCN)C(c2nc3c(oc4ccc(F)cc43)c(=O)n2Cc2ccc(C(=O)NC(C)C)o2)C(C)C)cc1` (stereo not shown) [Compound 119], the IC50 was under 30 µM.

As to `Cc1ccc(C(=O)N(CCCN)C(c2nc3c(oc4ccc(F)cc43)c(=O)n2Cc2ccc(C(F)(F)F)o2)C(C)C)cc1` (stereo not shown) [Compound 87], the IC50 is under 30 µM.

With `Cc1ccc(C(=O)N(CCCN)C(c2nc3c(oc4ccc(F)cc43)c(=O)n2Cc2ccc(Cl)o2)C(C)C)cc1` (stereo not shown) [Compound 91], the IC50 was under 30 µM.

Consider `Cc1ccc(C(=O)N(CCN)C(c2nc3c(oc4ccc(F)cc43)c(=O)n2Cc2cc(C#N)cs2)C(C)C)cc1` (stereo not shown) [Compound 112], for which the IC50 is under 30 µM.

As to `Cc1ccc(C(=O)N(CCCN)C(c2nc3c(sc4ccccc43)c(=O)n2Cc2ccc(Br)s2)C(C)C)cc1F` (stereo not shown) [Compound 146], the IC50 is under 30 µM.

On to `CCC(c1nc2c(oc3ccccc32)c(=O)n1Cc1ccccc1)N(CCCN(C)C)C(=O)c1ccc(Br)cc1` (stereo not shown) [Compound 20], for which the IC50 was under 30 µM.

With `Cc1ccc(C(=O)N(CCN)[C@@H](c2nc3c(oc4ccc(F)cc43)c(=O)n2Cc2ccccc2)C(C)C)c(F)c1F` [Compound 206], the IC50 is under 30 µM.

As to `Cc1ccc(C(=O)N(CCN)C(c2nc3c(oc4ccc(Cl)cc43)c(=O)n2Cc2ccc(C(F)(F)F)o2)C(C)C)cc1` (stereo not shown) [Compound 101], the IC50 is under 30 µM.

For `Cc1ccc(C(=O)N(CCN)C(c2nc3c(oc4ccc(F)cc43)c(=O)n2Cc2ccccc2)C(C)C)cc1` (stereo not shown) [Compound 105], the IC50 is under 30 µM.

As to `Cc1ccc(C(=O)N(CCCN)C(c2nc3c(oc4ccc(Cl)cc43)c(=O)n2Cc2cccc(F)c2)C(C)C)cc1` (stereo not shown) [Compound 97], the IC50 is under 30 µM.

Turning to `Cc1ccc(C(=O)N(CCN)C(c2nc3c(oc4ccc(F)cc43)c(=O)n2Cc2ccsc2)C(C)C)cc1` (stereo not shown) [Compound 75], the IC50 is under 30 µM.

For `Cc1ccc(C(=O)N(CCN)C(c2nc3c(oc4ccc(Br)cc43)c(=O)n2Cc2ccccc2)C(C)C)cn1` (stereo not shown) [Compound 59], the IC50 was under 30 µM.

For the compound `Cc1ccc(C(=O)N(CCCN)C(c2nc3c(oc4ccccc43)c(=O)n2Cc2ccccc2O)C(C)C)cc1` (stereo not shown) [Compound 29], the IC50 was under 30 µM.

On to `Cc1ccc(Cn2c([C@@H](C(C)C)N(CCN)C(=O)c3ccc(Cl)cc3)nc3c(oc4ccc(F)cc43)c2=O)cc1` [Compound 184], for which the IC50 is under 30 µM.

Take `Cc1ccc(C(=O)N(CCN)C(c2nc3c(oc4ccc(F)cc43)c(=O)n2Cc2cc(Br)co2)C(C)C)cc1` (stereo not shown) [Compound 92]: the IC50 was under 30 µM.

As for `Cc1ccc(C(=O)N(CCCN)C(c2nc3c(oc4ccccc43)c(=O)n2Cc2ccc(Cl)s2)C(C)C)cc1` (stereo not shown) [Compound 16], the IC50 was under 30 µM.

With `Cc1ccc(C(=O)N(CCN)[C@@H](c2nc3c(oc4ccc(F)cc43)c(=O)n2Cc2ccc(Cl)o2)C(C)C)cc1F` [Compound 190], the IC50 was under 30 µM.

With `Cc1ccc(C(=O)N(CCN)C(c2nc3c(oc4ccc(Cl)cc43)c(=O)n2Cc2ccc(Cl)o2)C(C)C)cc1` (stereo not shown) [Compound 100], the IC50 was under 30 µM.

`Cc1ccc(Cn2c([C@@H](C(C)C)N(CCN)C(=O)c3ccc(C)cc3)nc3c(oc4ccc(F)cc43)c2=O)cc1` [Compound 180]: the IC50 is under 30 µM.

As to `CCNC(=O)c1ccc(Cn2c(C(C(C)C)N(CCN)C(=O)c3ccc(C)cc3)nc3c(oc4ccc(F)cc43)c2=O)s1` (stereo not shown) [Compound 116], the IC50 was under 30 µM.

As for `Cc1ccc(C(=O)N(CCCN)C(c2nc3c([nH]c4ccc(Br)cc43)c(=O)n2Cc2ccccc2)C(C)C)cc1` (stereo not shown) [Compound 157], the IC50 was under 30 µM.

Take `Cc1ccc(C(=O)N(CCN)C(c2nc3c(oc4ccc(F)cc43)c(=O)n2Cc2ccc(C(=O)N(C)C)s2)C(C)C)cc1` (stereo not shown) [Compound 115]: the IC50 is under 30 µM.

Consider `CC(C)[C@H](c1nc2c(oc3ccc(F)cc32)c(=O)n1Cc1ccccc1)N(CCN)C(=O)c1ccc(Br)cc1` [Compound 205], for which the IC50 was under 30 µM.

Consider `Cc1ccc(C(=O)N(CCN)[C@@H](c2nc3c(oc4ccc(F)cc43)c(=O)n2Cc2ccccc2)C(C)C)cc1` [Compound 191], for which the IC50 was under 30 µM.

For the compound `Cc1ccc(C(=O)N(CCCN)C(c2nc3cc4ccccc4cc3c(=O)n2Cc2ccccc2)C(C)C)cc1` (stereo not shown) [Compound 3], the IC50 was under 30 µM.

`CCN(CC)C(=O)c1ccc(Cn2c(C(C(C)C)N(CCN)C(=O)c3ccc(C)cc3)nc3c(oc4ccc(F)cc43)c2=O)s1` (stereo not shown) [Compound 117]: the IC50 is under 30 µM.

Take `Cc1ccc(C(=O)N(CCCN)C(c2nc3c(oc4ccc(Cl)cc43)c(=O)n2Cc2ccccc2)C(C)C)cc1` (stereo not shown) [Compound 35]: the IC50 was under 30 µM.

Turning to `CNC(=O)c1ccc(Cn2c(C(C(C)C)N(CCN)C(=O)c3ccc(C)cc3)nc3c(oc4ccc(F)cc43)c2=O)o1` (stereo not shown) [Compound 118], the IC50 was under 30 µM.

For `CCC(c1nc2c(oc3ccc(Cl)cc32)c(=O)n1Cc1ccccc1)N(CCCN)S(=O)(=O)c1ccc(C)cc1` (stereo not shown) [Compound 33], the IC50 was under 30 µM.

For `Cc1ccc(C(=O)N(CCCN)C(c2nc3c(oc4ccccc43)c(=O)n2Cc2ccccc2)C(C)C)cc1` (stereo not shown) [Compound 13], the IC50 is under 30 µM.

On to `Cc1ccc(C(=O)N(CCCN)C(c2nc3c(sc4ccc(F)cc43)c(=O)n2Cc2ccccc2)C(C)C)cc1` (stereo not shown) [Compound 136], for which the IC50 is under 30 µM.

Source of the values: US20090214529A9, “KINESIN INHIBITORS” (TaiGen Biotechnology Co., Ltd., priority 2007, published 2009).
